Experimental data as given in publication PMC10498667 (Chemical Science, 2023).
Read-outs that look alike come from different tables or passages of the source.

Tests used:
MTT cytotoxicity assay = assay type: cell-based; conditions: human
Protocol: Flavonoid 6 was synthesized following previously reported procedures with modifications.[66–68] […] It should be noted that cell viability was calculated, relative to that of the cells containing an equivalent amount of DMSO.
Cell viability was determined by the MTT assay [MTT = 3-(4,5-dimethylthiazol-2-yl)-2,5-diphenyltetrazolium bromide]. Cells were seeded in a 96-well plate (15,000 cells/100 µL) and treated with the samples {[flavonoid] = 5, 10, 25, 50, and 100 µM (1% v/v DMSO)}. After 24 h incubation, 5Y cells were washed with phosphate buffered saline (PBS; GIBCO). MTT [5 mg/mL in PBS (pH 7.4, GIBCO); 25 µL] was added to each well and the plate was incubated for 4 h at 37 °C. The formazan produced by cells was solubilized using an acidic solution of DMF (pH 4.5, 50% v/v, aq) and sodium dodecyl sulfate (SDS; 20% w/v) overnight at room temperature in the dark. Absorbance was measured at 600 nm by a microplate reader (Molecular Devices). Cell viability, relative to that of the cells containing an equivalent amount of DMSO, was calculated.
The measurements were conducted in triplicate. […]

[1] = target: T1, Electric eel acetylcholinesterase (eeAChE) (Electrophorus electricus, UniProt O42275); assay: Fluorometric AChE activity assay; assay type: biochemical
T1 construct: purchased Invitrogen (AChE assay kit)
Description: Inhibiting the activity of AChE can maintain a proper level of ACh under dysregulated cholinergic conditions.[10,11] Thus, the inhibitory capability of flavonoids against AChE was investigated by a previously reported fluorescent AChE assay with slight modifications.[60] […] The inclusion of three hydroxyl groups on the A ring is critical for controlling the catalytic activity of AChE, as previously reported,[49] whereas the incorporation of a chloro substituent, with three hydroxyl groups, and methoxy moieties instead of hydroxyl groups on the A ring can decrease such inhibitory activity. Flavonoids 2, 3, and 1b over 1 illustrates the importance of the position of hydroxyl groups on the A ring and the isoflavone variation in directing the flavonoids' ability to inhibit the activity of AChE. […]
All experiments were performed in triplicate.
AChE Activity Assay. The AChE inhibitory activity of flavonoids was measured by a fluorometric AChE assay kit (Invitrogen) following the manufacturer ’s protocol with slight modifications.
Electric eel acetylcholinesterase (eeAChE) was dissolved and diluted with a working solution. The eeAChE solution (50 µL) was added into a 96-well plate. Various concentrations of flavonoids were then introduced into the 96-well plate. The final concentrations of flavonoids were as follow: […]
µM). After shaking, the mixture of eeAChE and flavonoids was pre-incubated for 15 min. A reaction mixture containing acetylcholine, an AChE probe, and AbRedTM was added into the 96-well plate to initiate the reaction. The AChE activity was calculated based on the fluorescence intensity (lex/lem = 571/585 nm) of the wells that was detected after 15 min incubation. Data were normalized to the control (no inhibitor). All experiments were performed in triplicate. […]
For the disaggregation studies, Ab (25 µM) was incubated with and without CuCl2 or ZnCl2 (25 µM) for 24 h at 37 °C with constant agitation to generate preformed Ab aggregates. The resultant Ab aggregates were then treated with flavonoids (50 µM) and incubated for additional 24 h with constant agitation. For the additional disaggregation experiments, preformed Ab42 aggregates (25 µM) or Ab42 seeds (10% v/v) with or without metal ions (25 µM for CuCl2 and ZnCl2) were incubated with flavonoids (50 µM) for 24 h with constant agitation. The resultant Ab aggregates were then treated with freshly prepared Ab42

[2] = human neuroblastoma 5Y cells, 100 μM flavonoid, 24 h, 5Y cells, relative to DMSO, read-out: cell viability
[3] = fluorometric assay, eeAChE, read-out: IC50 for AChE inhibition
[4] = 100 μM flavonoid, 24 h, 5Y cells, relative to DMSO, read-out: cell viability

T1 sequence (O42275 24-633): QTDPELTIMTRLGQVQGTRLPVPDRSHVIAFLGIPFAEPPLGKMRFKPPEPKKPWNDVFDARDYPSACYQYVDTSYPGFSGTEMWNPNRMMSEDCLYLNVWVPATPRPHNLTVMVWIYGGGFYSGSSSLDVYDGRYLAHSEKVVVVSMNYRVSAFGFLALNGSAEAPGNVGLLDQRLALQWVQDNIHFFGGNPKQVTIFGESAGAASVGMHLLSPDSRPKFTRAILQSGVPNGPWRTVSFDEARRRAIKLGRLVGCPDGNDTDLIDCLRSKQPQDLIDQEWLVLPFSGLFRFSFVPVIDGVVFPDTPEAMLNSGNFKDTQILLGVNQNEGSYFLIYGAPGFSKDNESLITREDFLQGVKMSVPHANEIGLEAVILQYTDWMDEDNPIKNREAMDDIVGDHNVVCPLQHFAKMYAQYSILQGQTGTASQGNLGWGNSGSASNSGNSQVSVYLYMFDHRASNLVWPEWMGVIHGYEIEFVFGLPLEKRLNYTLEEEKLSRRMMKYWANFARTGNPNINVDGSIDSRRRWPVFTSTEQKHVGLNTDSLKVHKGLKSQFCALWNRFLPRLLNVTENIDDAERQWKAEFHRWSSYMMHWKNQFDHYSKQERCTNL

Compound	viability at 24 h, 100 μM (MTT cytotoxicity assay; [2]) [%]	IC50 [1, 3] [µM]	other results
O=c1c(-c2ccccc2)coc2cc(O)c(O)c(O)c12 [4b, 5,6,7-trihydroxyisoflavone]	~70	1.4	–
O=c1cc(-c2ccccc2)oc2cc(O)cc(O)c12 [compound 1, chrysin]	–	–	viability at 24 h, 100 μM (MTT cytotoxicity assay; [4]): ~30%; inhibitory activity against AChE (IC50 could not be obtained) ([1]; fluorometric assay, eeAChE): negligible inhibitory activity
O=c1cc(-c2ccccc2)oc2cc(O)c(O)cc12 [compound 2, 6,7-dihydroxyflavone]	–	–	viability at 24 h, 100 μM (MTT cytotoxicity assay): ~60%; IC50 [1]: 4.18 µM
O=c1cc(-c2ccccc2)oc2ccc(O)c(O)c12 [compound 3, 5,6-dihydroxyflavone]	~50	4.51	–
O=c1cc(-c2ccccc2)oc2cc(O)c(O)c(O)c12 [compound 4, baicalein]	–	–	viability at 24 h, 100 μM (MTT cytotoxicity assay; [4]): ~70%; IC50 [1]: 1.95 µM
O=c1cc(-c2ccccc2)oc2c(Cl)c(O)c(O)c(O)c12 [compound 5, 8-chlorobaicalein]	~60	12.3	–
O=c1c(-c2ccc(O)c(O)c2)coc2cc(O)c(O)c(O)c12 [compound 6, 3-(3,4-dihydroxyphenyl)-5,6,7-trihydroxy-4H-chromen-4-one]	–	0.19	–
